From PubChem BioAssay AID328 (DTP/NCI, 2004)
“And” between values parts separate entries of the source, which are not always exact repeats. Equal values may be shown once. Inconclusive results and toxic doses are left out.

System: BDF1 mice, P388 leukemia ip, median survival T/C
Test: NCI In Vivo Anticancer Drug Screen. Data for tumor model P388 Leukemia (intraperitoneal) in B6D2F1 (BDF1) mice
Details: endpoint: median survival time, higher = longer survival
Summary of the method: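 Vehicle-dosed animals serve as the reference; survival of compound-dosed, tumour-implanted mice is divided by it.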

[1] = dose: 200.0 mg/kg/injection, schedule: Q01DX009 (ip), vehicle: saline
[2] = dose: 100.0 mg/kg/injection, schedule: Q04DX003 (ip), vehicle: saline with Tween-80
[3] = dose: 200.0 mg/kg/injection, schedule: Q04DX003 (ip), vehicle: saline with Tween-80
[4] = dose: 12.5 mg/kg/injection, schedule: Q01DX009 (ip), vehicle: saline
[5] = dose: 25.0 mg/kg/injection, schedule: Q01DX009 (ip), vehicle: saline
[6] = dose: 50.0 mg/kg/injection, schedule: Q01DX009 (ip), vehicle: saline with Tween-80
[7] = dose: 100.0 mg/kg/injection, schedule: Q01DX009 (ip), vehicle: saline with Tween-80
[8] = dose: 50.0 mg/kg/injection, schedule: Q04DX003 (ip), vehicle: saline
[9] = dose: 100.0 mg/kg/injection, schedule: Q01DX009 (ip), vehicle: Klucel (hydroxypropylcellulose) (HPC)
[10] = dose: 25.0 mg/kg/injection, schedule: Q01DX009 (ip), vehicle: Klucel (hydroxypropylcellulose) (HPC)
[11] = dose: 50.0 mg/kg/injection, schedule: Q01DX009 (ip), vehicle: Klucel (hydroxypropylcellulose) (HPC)
[12] = dose: 50.0 mg/kg/injection, schedule: Q01DX009 (ip), vehicle: saline
[13] = dose: 100.0 mg/kg/injection, schedule: Q01DX009 (ip), vehicle: saline
[14] = dose: 100.0 mg/kg/injection, schedule: Q04DX003 (ip), vehicle: saline
[15] = dose: 200.0 mg/kg/injection, schedule: Q04DX003 (ip), vehicle: saline
[16] = dose: 400.0 mg/kg/injection, schedule: Q04DX003 (ip), vehicle: saline

Cn1cnc([N+](=O)[O-])c1Sc1ncnc2nc[nH]c12
T/C (dose: 44.0 mg/kg/injection, schedule: Q04DX003 (ip), vehicle: saline sonified): 110 % of control
T/C (dose: 66.0 mg/kg/injection, schedule: Q04DX003 (ip), vehicle: saline sonified): 120 % of control
T/C (dose: 150.0 mg/kg/injection, schedule: Q04DX003 (ip), vehicle: saline sonified): 175 % of control
T/C [1]: 86 % of control
T/C (dose: 400.0 mg/kg/injection, schedule: Q04DX003 (ip), vehicle: saline sonified): 109 % of control

CN1C(C)(C)CC(O)(C(O)(c2ccccc2)c2ccccc2)CC1(C)C
T/C (dose: 12.5 mg/kg/injection, schedule: Q04DX003 (ip), vehicle: Klucel (hydroxypropylcellulose) (HPC)): 109 % of control
T/C (dose: 25.0 mg/kg/injection, schedule: Q04DX003 (ip), vehicle: Klucel (hydroxypropylcellulose) (HPC)): 109 % of control
T/C (dose: 50.0 mg/kg/injection, schedule: Q04DX003 (ip), vehicle: Klucel (hydroxypropylcellulose) (HPC)): 113 % of control

O=C(OC12CCCCC1CCCC2)c1ccc([N+](=O)[O-])cc1 (stereo unspecified)
T/C [2]: 110 % of control
T/C [3]: 100 % of control
T/C (dose: 400.0 mg/kg/injection, schedule: Q04DX003 (ip), vehicle: saline with Tween-80): 100 % of control

CCCCCCCCCCCCSC(=N)N
T/C (dose: 0.39 mg/kg/injection, schedule: Q04DX003 (ip), vehicle: saline): 104 % of control
T/C (dose: 0.78 mg/kg/injection, schedule: Q04DX003 (ip), vehicle: saline): 104 % of control
T/C (dose: 3.12 mg/kg/injection, schedule: Q04DX003 (ip), vehicle: saline): 100 % of control
T/C (dose: 6.25 mg/kg/injection, schedule: Q01DX009 (ip), vehicle: saline): 109 % of control
T/C [4]: 100 % of control
T/C [5]: 100 % of control

CCN(CCP(c1ccccc1)c1ccccc1)CCP(c1ccccc1)c1ccccc1
T/C [6]: 86 % of control
T/C (dose: 66.0 mg/kg/injection, schedule: Q04DX003 (ip), vehicle: saline with Tween-80): 150 % of control
T/C [2]: 159 % of control

CC1=Nc2ccccc2N=C(C)C1
T/C (dose: 25.0 mg/kg/injection, schedule: Q01DX009 (ip), vehicle: saline with Tween-80): 100 % of control
T/C (dose: 50.0 mg/kg/injection, schedule: Q01DX001 (ip), vehicle: saline with Tween-80): 100 % of control
T/C [6]: 90 % of control
T/C (dose: 100.0 mg/kg/injection, schedule: Q01DX001 (ip), vehicle: saline with Tween-80): 104 % of control
T/C [7]: 109 % of control
T/C [2]: 100 % of control
T/C (dose: 150.0 mg/kg/injection, schedule: Q01DX009 (ip), vehicle: saline with Tween-80): 100 % of control
T/C (dose: 200.0 mg/kg/injection, schedule: Q01DX001 (ip), vehicle: saline with Tween-80): 100 % of control
T/C [3]: 100 % of control

Nc1ncnc2c(C3OC(CO)C(O)C3O)[nH]nc12 (stereo unspecified)
T/C (dose: 1.5 mg/kg/injection, schedule: Q01DX009 (ip), vehicle: saline): 100 % of control
T/C (dose: 2.3 mg/kg/injection, schedule: Q01DX009 (ip), vehicle: saline): 109 % of control
T/C (dose: 8.0 mg/kg/injection, schedule: Q01DX009 (ip), vehicle: saline): 113 % of control
T/C [4]: 159 % of control
T/C (dose: 33.0 mg/kg/injection, schedule: Q04DX003 (ip), vehicle: saline): 104 % of control
T/C [8]: 114 % of control
T/C (dose: 75.0 mg/kg/injection, schedule: Q04DX003 (ip), vehicle: saline): 95 % of control
T/C (dose: 100.0 mg/kg/injection, schedule: Q04DX003 (ip), vehicle: saline sonified): 118 % of control

O=c1c2ccccc2cc2ccccn12
T/C [9]: 109 % of control
T/C (dose: 100.0 mg/kg/injection, schedule: Q04DX003 (ip), vehicle: Klucel (hydroxypropylcellulose) (HPC)): 91 % of control
T/C (dose: 200.0 mg/kg/injection, schedule: Q01DX009 (ip), vehicle: Klucel (hydroxypropylcellulose) (HPC)): 109 % of control
T/C (dose: 200.0 mg/kg/injection, schedule: Q04DX003 (ip), vehicle: Klucel (hydroxypropylcellulose) (HPC)): 95 % of control

COc1cc(N=Nc2ccc(O)c3ncccc23)c(OC)cc1N=Nc1ccc([N+](=O)[O-])cc1
T/C (dose: 50.0 mg/kg/injection, schedule: Q01DX005 (ip), vehicle: saline with Tween-80): 101 % of control
T/C (dose: 100.0 mg/kg/injection, schedule: Q01DX005 (ip), vehicle: saline with Tween-80): 111 % of control

CCS(=O)(=O)OCCCl
T/C [10]: 100 % of control
T/C (dose: 44.0 mg/kg/injection, schedule: Q01DX009 (ip), vehicle: saline): 104 % of control
T/C [11]: 100 % of control
T/C [6]: 103 % of control
T/C [12]: 161 % of control
T/C (dose: 66.0 mg/kg/injection, schedule: Q01DX009 (ip), vehicle: saline): 108 % of control
T/C [9]: 105 % of control
T/C [7]: 104 % of control
T/C [13]: 230 % of control and 95 % of control and 108 % of control
T/C [14]: 100 % of control
T/C (dose: 150.0 mg/kg/injection, schedule: Q01DX009 (ip), vehicle: saline): 120 % of control
T/C (dose: 200.0 mg/kg/injection, schedule: Q01DX009 (ip), vehicle: saline with Tween-80): 116 % of control
T/C [15]: 91 % of control

COC(=O)C1(C)CSCCC1=O (stereo unspecified)
T/C [13]: 105 % of control
T/C [14]: 100 % of control
T/C [1]: 105 % of control
T/C [15]: 100 % of control
T/C (dose: 400.0 mg/kg/injection, schedule: Q01DX009 (ip), vehicle: saline): 95 % of control
T/C [16]: 95 % of control

CCN(CC)Cc1cc(Nc2c3ccc([N+](=O)[O-])cc3nc3ccc(OC)cc23)ccc1O
T/C (dose: 12.5 mg/kg/injection, schedule: Q04DX003 (ip), vehicle: saline): 111 % of control
T/C [5]: 97 % of control
T/C (dose: 25.0 mg/kg/injection, schedule: Q04DX003 (ip), vehicle: saline): 111 % of control
T/C [12]: 104 % of control
T/C [8]: 113 % of control
T/C [13]: 100 % of control
T/C [14]: 113 % of control
T/C [1]: 121 % of control
T/C [15]: 89 % of control
T/C [16]: 104 % of control

CCCCCCCCCC(=O)OCC1OC(=O)C(C)N(C)C(=O)CN(C)C(=O)C2C(=O)CC(C)N2C(=O)C(C(C)C)NC(=O)C1NC(=O)c1c2nc3c(C(=O)NC4C(=O)NC(C(C)C)C(=O)N5C(C)CC(OC(=O)CCCCCCCCC)C5C(=O)N(C)CC(=O)N(C)C(C(C)C)C(=O)OC4C)ccc(C)c3oc-2c(C)c(=O)c1N (stereo unspecified)
T/C (dose: 0.1 mg/kg/injection, schedule: Q01DX009 (ip), vehicle: saline with Tween-80): 105 % of control
T/C (dose: 0.2 mg/kg/injection, schedule: Q01DX009 (ip), vehicle: saline with Tween-80): 93 % of control
T/C (dose: 0.3 mg/kg/injection, schedule: Q04DX003 (ip), vehicle: saline with Tween-80): 107 % of control
T/C (dose: 0.4 mg/kg/injection, schedule: Q01DX009 (ip), vehicle: saline with Tween-80): 89 % of control
T/C (dose: 0.6 mg/kg/injection, schedule: Q04DX003 (ip), vehicle: saline with Tween-80): 92 % of control
T/C (dose: 0.8 mg/kg/injection, schedule: Q01DX001 (ip), vehicle: saline with Tween-80): 98 % of control
T/C (dose: 0.8 mg/kg/injection, schedule: Q01DX009 (ip), vehicle: saline with Tween-80): 96 % of control
T/C (dose: 1.6 mg/kg/injection, schedule: Q01DX001 (ip), vehicle: saline with Tween-80): 107 % of control
T/C (dose: 1.6 mg/kg/injection, schedule: Q01DX009 (ip), vehicle: saline with Tween-80): 117 % of control
T/C (dose: 2.4 mg/kg/injection, schedule: Q04DX003 (ip), vehicle: saline with Tween-80): 96 % of control
T/C (dose: 3.2 mg/kg/injection, schedule: Q01DX001 (ip), vehicle: saline with Tween-80): 100 % of control
T/C (dose: 4.8 mg/kg/injection, schedule: Q04DX003 (ip), vehicle: saline with Tween-80): 92 % of control
T/C (dose: 6.4 mg/kg/injection, schedule: Q01DX001 (ip), vehicle: saline with Tween-80): 100 % of control
T/C (dose: 12.8 mg/kg/injection, schedule: Q01DX001 (ip), vehicle: saline with Tween-80): 97 % of control

CC(C)=CCC/C(C)=C/CNCCc1c[nH]c2ccccc12
T/C (dose: 3.12 mg/kg/injection, schedule: Q01DX009 (ip), vehicle: Klucel (hydroxypropylcellulose) (HPC)): 117 % of control
T/C (dose: 6.25 mg/kg/injection, schedule: Q01DX009 (ip), vehicle: Klucel (hydroxypropylcellulose) (HPC)): 104 % of control and 117 % of control
T/C (dose: 12.5 mg/kg/injection, schedule: Q01DX009 (ip), vehicle: Klucel (hydroxypropylcellulose) (HPC)): 117 % of control
T/C [10]: 120 % of control
T/C [11]: 120 % of control
